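Assay format: 96-well plates, 48-hour exposure. The concentration for 50% growth inhibition is given as GI50.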 Calls of active or inactive are those of the source. No stated cut-off is given here; in the data, active = GI50 up to about 1.1 µM and inactive = higher. Residues, ends and D or L forms follow the SMILES beside them. *: point of attachment. Boc = CC(C)(C)OC(=O)*
Tests used:
Assay in all cases: growth of human tumour cells (NCI), 48 h
CCRF-CEM = system: CCRF-CEM
NCI/ADR-RES = system: NCI/ADR-RES
RPMI-8226 = system: RPMI-8226
SK-OV-3 = system: SK-OV-3
IGROV-1 = system: IGROV-1
MCF7 = system: MCF7
DU-145 = system: DU-145
LOX IMVI = system: LOX IMVI
Hs-578T = system: Hs-578T
MDA-MB-435 = system: MDA-MB-435
Malme-3M = system: Malme-3M
UACC-257 = system: UACC-257
CAKI-1 = system: CAKI-1
A498 = system: A498

| SMILES | GI50 (CCRF-CEM) | GI50 (NCI/ADR-RES) | GI50 (RPMI-8226) | GI50 (SK-OV-3) | GI50 (IGROV-1) | GI50 (MCF7) | GI50 (DU-145) | GI50 (LOX IMVI) | GI50 (Hs-578T) | GI50 (MDA-MB-435) | GI50 (Malme-3M) | GI50 (UACC-257) | GI50 (CAKI-1) | GI50 (A498) |
| --- | --- | --- | --- | --- | --- | --- | --- | --- | --- | --- | --- | --- | --- | --- |
| Cc1cc(C)c(S(=O)(=O)N(CCCCCCN)OCCCN)c(C)c1 | 16.1 µM (inactive) | 24.3 µM (inactive) | 31.6 µM (inactive) | 18.4 µM (inactive) | 13.9 µM (inactive) | 19.8 µM (inactive) | 16.1 µM (inactive) | 12.2 µM (inactive) | 13.8 µM (inactive) | 62.1 µM (inactive) | 10.3 µM (inactive) | 15.8 µM (inactive) | – | – |
| O=c1sc(Nc2ccc3ccccc3c2Cl)nc2ccccc12 | > 100 µM (inactive) | > 100 µM (inactive) | > 100 µM (inactive) | > 100 µM (inactive) | > 100 µM (inactive) | > 100 µM (inactive) | > 100 µM (inactive) | > 100 µM (inactive) | 57.1 µM (inactive) | 37.1 µM (inactive) | > 100 µM (inactive) | > 100 µM (inactive) | 35.9 µM (inactive) | – |
| O=C1OC(=O)c2c1cc1cc3c(cc1c2-c1ccc2c(c1)OCO2)OCO3 | > 100 µM (inactive) | > 100 µM (inactive) | > 100 µM (inactive) | – | > 100 µM (inactive) | > 100 µM (inactive) | > 100 µM (inactive) | – | – | > 100 µM (inactive) | > 100 µM (inactive) | > 100 µM (inactive) | > 100 µM (inactive) | > 100 µM (inactive) |
| CCOc1cc(C=O)ccc1O [ETHYL VANILLIN] | > 10 µM (inactive) | > 100 µM (inactive) | > 100 µM (inactive) | – | > 100 µM (inactive) | > 100 µM (inactive) | > 100 µM (inactive) | > 100 µM (inactive) | > 100 µM (inactive) | > 100 µM (inactive) | > 100 µM (inactive) | > 100 µM (inactive) | > 100 µM (inactive) | – |
| CC1CCC2C(C(=O)O[C@H]3C4CCO[C@@H](OC5OC(CO)C(O)C(O)C5O)C4[C@@]4(CO)O[C@@H]34)=CO[C@@H](OC3OC(CO)C(O)C(O)C3O)C12 (stereo partly drawn) | > 10 µM (inactive) | – | > 10 µM (inactive) | > 10 µM (inactive) | > 10 µM (inactive) | > 10 µM (inactive) | > 10 µM (inactive) | > 10 µM (inactive) | > 10 µM (inactive) | > 10 µM (inactive) | > 10 µM (inactive) | > 10 µM (inactive) | – | > 10 µM (inactive) |
| CC(C)(C)OC(=O)NC(Cc1ccccc1)C(=O)N[C@H]1c2ccsc2/C(=N/O)[C@H]1O (stereo partly drawn) | > 100 µM (inactive) | > 100 µM (inactive) | – | > 100 µM (inactive) | > 100 µM (inactive) | > 100 µM (inactive) | > 100 µM (inactive) | > 100 µM (inactive) | – | > 100 µM (inactive) | > 100 µM (inactive) | > 100 µM (inactive) | > 100 µM (inactive) | > 100 µM (inactive) |
| N/C(=N\c1c([N+](=O)[O-])cnc2ccccc12)N1CCOCC1 | > 100 µM (inactive) | 95.9 µM (inactive) | > 100 µM (inactive) | > 100 µM (inactive) | > 100 µM (inactive) | > 100 µM (inactive) | > 100 µM (inactive) | > 100 µM (inactive) | > 100 µM (inactive) | > 100 µM (inactive) | – | > 10 µM (inactive) | > 100 µM (inactive) | > 100 µM (inactive) |
| N#CC(=S)Nc1ccc(F)cc1 | 22.4 µM (inactive) | 34.2 µM (inactive) | 8.22 µM (inactive) | > 100 µM (inactive) | 32.1 µM (inactive) | 64.7 µM (inactive) | 86.7 µM (inactive) | 30.8 µM (inactive) | – | 38 µM (inactive) | 50.2 µM (inactive) | 30.6 µM (inactive) | 63.8 µM (inactive) | 32.7 µM (inactive) |
| CC(NC(=O)C(NC(=O)OC(C)(C)C)C(C)C)C(=O)N1CCCC1C(=O)NCC(=O)NC(C(=O)NCC(=O)O)C(C)C (stereo not drawn) (Boc-VAPGVG-OH; configuration not given here) | > 100 µM (inactive) | > 100 µM (inactive) | > 100 µM (inactive) | > 100 µM (inactive) | > 100 µM (inactive) | > 100 µM (inactive) | > 100 µM (inactive) | > 100 µM (inactive) | – | > 100 µM (inactive) | > 100 µM (inactive) | > 100 µM (inactive) | > 100 µM (inactive) | > 100 µM (inactive) |
| COc1ccc(/C=C2/SC(c3ccccc3)N(NC(=O)CCCCCCCCC(=O)NN3C(=O)/C(=C\c4ccc(OC)c(OC)c4)SC3c3ccccc3)C2=O)cc1OC (stereo not drawn) | – | 60.3 µM (inactive) | 20.7 µM (inactive) | 48.6 µM (inactive) | 1.03 µM (active) | 34 µM (inactive) | > 100 µM (inactive) | – | – | 38.5 µM (inactive) | – | 39.4 µM (inactive) | 53.6 µM (inactive) | 57.4 µM (inactive) |
| Cc1ncc2c(n1)CCC1=C2OS(=O)(=O)CC1N(C)C (stereo not drawn) | 80.5 µM (inactive) | – | > 100 µM (inactive) | > 100 µM (inactive) | > 100 µM (inactive) | > 100 µM (inactive) | > 100 µM (inactive) | > 100 µM (inactive) | > 100 µM (inactive) | > 100 µM (inactive) | – | > 100 µM (inactive) | 69.5 µM (inactive) | 58.2 µM (inactive) |
| CCN(CC)CCNC(=O)c1cc2cc(NC(=O)c3cc4cc(NC(=O)c5cc6cc(N)ccc6[nH]5)ccc4[nH]3)ccc2[nH]1 | > 100 µM (inactive) | > 100 µM (inactive) | > 100 µM (inactive) | > 100 µM (inactive) | > 100 µM (inactive) | – | > 100 µM (inactive) | > 100 µM (inactive) | > 100 µM (inactive) | > 100 µM (inactive) | > 100 µM (inactive) | > 100 µM (inactive) | > 100 µM (inactive) | > 100 µM (inactive) |
| COC(=O)C1OC2(CCCC3CC32)O[C@H]1C(=O)OC (stereo partly drawn) | > 100 µM (inactive) | > 100 µM (inactive) | > 100 µM (inactive) | > 100 µM (inactive) | > 100 µM (inactive) | > 100 µM (inactive) | > 100 µM (inactive) | > 100 µM (inactive) | > 100 µM (inactive) | > 100 µM (inactive) | > 100 µM (inactive) | > 100 µM (inactive) | > 100 µM (inactive) | – |
| COc1ccc(-c2nc(-c3cnccn3)n(Cc3ccccc3)n2)cc1 | > 100 µM (inactive) | > 100 µM (inactive) | > 100 µM (inactive) | > 100 µM (inactive) | > 100 µM (inactive) | > 100 µM (inactive) | > 100 µM (inactive) | > 100 µM (inactive) | – | > 100 µM (inactive) | – | > 100 µM (inactive) | – | – |
| COc1ccc(CC2(O)C3CC4CCC2C4C3)cc1 (stereo not drawn) | 42 µM (inactive) | 44.7 µM (inactive) | > 100 µM (inactive) | > 100 µM (inactive) | > 100 µM (inactive) | 65.6 µM (inactive) | – | > 100 µM (inactive) | 85.3 µM (inactive) | > 100 µM (inactive) | > 100 µM (inactive) | 38.5 µM (inactive) | > 100 µM (inactive) | – |
| COC(CC1(/C=C/O[Si](C(C)C)(C(C)C)C(C)C)C(=O)N(COCC[Si](C)(C)C)c2ccccc21)OC (stereo not drawn) | 13.4 µM (inactive) | > 100 µM (inactive) | > 100 µM (inactive) | 20.8 µM (inactive) | 24.5 µM (inactive) | – | > 100 µM (inactive) | 20.8 µM (inactive) | > 100 µM (inactive) | 23.2 µM (inactive) | – | 25.5 µM (inactive) | 46.3 µM (inactive) | > 100 µM (inactive) |
| COC(=O)c1cc2c3c(cc(N(C)C)c2[nH]1)N(C(=O)c1cc2cc(OC)c(OC)c(OC)c2[nH]1)CC3CCl (stereo not drawn) | 0.00403 µM (active) | 0.00392 µM (active) | 0.00432 µM (active) | 0.00738 µM (active) | < 0.0025 µM (active) | < 0.0025 µM (active) | < 0.0025 µM (active) | – | – | 0.00298 µM (active) | 0.00463 µM (active) | 0.00476 µM (active) | < 0.0025 µM (active) | 0.00443 µM (active) |
| O=C(Nc1ccn(C2CC(O)C(COC(c3ccccc3)(c3ccccc3)c3ccccc3)O2)c(=O)n1)c1ccccc1 (stereo not drawn) | 2.79 µM (inactive) | 2.46 µM (inactive) | 2.53 µM (inactive) | 11.5 µM (inactive) | 2.9 µM (inactive) | 2.43 µM (inactive) | 5.61 µM (inactive) | – | 2.31 µM (inactive) | 2.56 µM (inactive) | 2.61 µM (inactive) | 12.7 µM (inactive) | 6.32 µM (inactive) | – |
| COc1ccc(C(=O)/C=C/S/C(=N/C#N)SC)cc1 | – | 21.3 µM (inactive) | 4.33 µM (inactive) | 26.2 µM (inactive) | 21.8 µM (inactive) | 18.4 µM (inactive) | 21.7 µM (inactive) | – | 30.9 µM (inactive) | 21.5 µM (inactive) | 24.5 µM (inactive) | 20.4 µM (inactive) | 22.9 µM (inactive) | 24.5 µM (inactive) |
| Cc1ccc2nc(NC(=O)/C(Cc3nc4ccc(Cl)cc4nc3O)=N\NC(C)(C)C)sc2c1 | > 100 µM (inactive) | > 100 µM (inactive) | > 100 µM (inactive) | > 100 µM (inactive) | – | > 100 µM (inactive) | > 100 µM (inactive) | > 100 µM (inactive) | 18.2 µM (inactive) | > 100 µM (inactive) | – | > 100 µM (inactive) | 41.8 µM (inactive) | > 100 µM (inactive) |
| Cc1c(N2C(=O)/C(=C/c3ccc(Cl)cc3)N=C2c2ccccc2)c(=O)n(-c2ccccc2)n1C | 28.3 µM (inactive) | 44.5 µM (inactive) | 17.8 µM (inactive) | 36.5 µM (inactive) | 29 µM (inactive) | 29 µM (inactive) | 38.2 µM (inactive) | 16.7 µM (inactive) | – | 19.5 µM (inactive) | 31.5 µM (inactive) | 18.3 µM (inactive) | 34.6 µM (inactive) | – |
